Source: PubChem BioAssay (NCI)
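Following 48 hours of exposure in 96-well plates, responses at five concentrations were used to interpolate endpoints linearly. Here, GI50 denotes the concentration required for 50% inhibition of growth. TGI is the concentration that stops growth completely.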

Columns and labels:
Test in all cases: inhibition of tumour cell growth, NCI panel, 48 h
[1] = system: 786-0 renal
[2] = system: CCRF-CEM leukemia
[3] = system: ACHN renal
[4] = system: SNB-19 CNS
[5] = system: COLO 205 colon
[6] = system: SW-620 colon
[7] = system: TK-10 renal
[8] = system: NCI-H460 lung
[9] = system: HOP-92 NSCLC
[10] = system: UO-31 renal
[11] = system: SF-295 CNS
[12] = system: MDA-MB-231 breast
[13] = system: UACC-257 melanoma
[14] = system: MDA-MB-435
[15] = system: OVCAR-8 ovarian
[16] = system: CAKI-1 renal
[17] = system: T-47D breast
[18] = system: HS 578T breast
[19] = system: UACC-62 melanoma
[20] = system: NCI/ADR-RES ovarian
[21] = system: SK-MEL-2 melanoma
[22] = system: HCC-2998 colon
[23] = system: SK-MEL-28 melanoma
[24] = system: HCT-15 colon
[25] = system: NCI-H23 lung
[26] = system: OVCAR-4 ovarian
[27] = system: HCT-116 colon
[28] = system: MOLT-4 leukemia
[29] = system: NCI-H522 lung
[30] = system: HT29 colon
[31] = system: SR leukemia
[32] = system: RPMI-8226 leukemia
[33] = system: A549 NSCLC
[34] = system: RXF 393 renal
[35] = system: HOP-62 NSCLC
[36] = system: M14 melanoma
[37] = system: SF-539 CNS
[38] = system: DU-145 prostate
[39] = system: BT-549 breast
[40] = system: LOX IMVI melanoma
[41] = system: SK-OV-3 ovarian
[42] = system: SNB-75 CNS
[43] = system: MALME-3M melanoma
[44] = system: OVCAR-5 ovarian
[45] = system: IGROV1 ovarian
[46] = system: SN12C renal
[47] = system: OVCAR-3 ovarian
[48] = system: NCI-H226 lung
[49] = system: U251 CNS
[50] = system: SF-268 CNS
[51] = system: EKVX NSCLC
[52] = system: A498 renal
[53] = system: PC-3 prostate
[54] = system: KM12 colon
[55] = system: MCF7 breast
[56] = system: SK-MEL-5 melanoma

In the case of Oc1ccc(-c2cn3ccsc3n2)cc1O, the GI50 [1] is reported as 36.6 µM, the TGI [1] is reported as over 100 µM and the GI50 [2] is reported as 4.41 µM. It also gave a TGI [2] of 29.6 µM, a GI50 [3] of 22 µM and a TGI [3] of 56.3 µM. It also gave a GI50 [4] of 49.9 µM, a TGI [4] of over 100 µM and a GI50 [5] of 29.9 µM. For the same compound, the TGI [5] was over 100 µM, the GI50 [6] was 11.5 µM and the TGI [6] was 70.5 µM. For the same compound, the GI50 [7] was 63.1 µM, the TGI [7] was over 100 µM and the GI50 [8] was 45.8 µM. For the same compound, the TGI [8] was over 100 µM, the GI50 [9] was 23 µM and the TGI [9] was 78.5 µM. The GI50 [10] was 16 µM, the TGI [10] was over 100 µM and the GI50 [11] was 69.6 µM. It also gave a TGI [11] of over 100 µM, a GI50 [12] of 17.6 µM and a TGI [12] of 44.2 µM. It also gave a GI50 [13] of over 100 µM, a TGI [13] of over 100 µM and a GI50 [14] of 22.1 µM. The TGI [14] was 47.8 µM, the GI50 [15] was 35.8 µM and the TGI [15] was over 100 µM. For the same compound, the GI50 [16] was 26.3 µM, the TGI [16] was over 100 µM and the GI50 [17] was 32.4 µM. For the same compound, the TGI [17] was over 100 µM, the GI50 [18] was 0.203 µM and the TGI [18] was 22.4 µM. For the same compound, the GI50 [19] was 19.6 µM, the TGI [19] was 43.9 µM and the GI50 [20] was over 100 µM. It also gave a TGI [20] of over 100 µM, a GI50 [21] of 35.1 µM and a TGI [21] of over 100 µM. The GI50 [22] was 78 µM, the TGI [22] was over 100 µM and the GI50 [23] was 32.9 µM. It also gave a TGI [23] of over 100 µM, a GI50 [24] of 37.8 µM and a TGI [24] of over 100 µM. It also gave a GI50 [25] of 46.3 µM, a TGI [25] of over 100 µM and a GI50 [26] of 32.7 µM. The TGI [26] was over 100 µM, the GI50 [27] was 18.1 µM and the TGI [27] was 37.8 µM. It also gave a GI50 [28] of 11 µM, a TGI [28] of 55.4 µM and a GI50 [29] of 11.5 µM. It also gave a TGI [29] of 33.2 µM, a GI50 [30] of 29.5 µM and a TGI [30] of over 100 µM. For the same compound, the GI50 [31] was 10.6 µM, the TGI [31] was 41.4 µM and the GI50 [32] was 12.1 µM. For the same compound, the TGI [32] was 65.4 µM, the GI50 [33] was 72.8 µM and the TGI [33] was over 100 µM. The GI50 [34] was 78 µM, the TGI [34] was over 100 µM and the GI50 [35] was 43.2 µM. The TGI [35] was over 100 µM, the GI50 [36] was 26.1 µM and the TGI [36] was 75.3 µM. It also gave a GI50 [37] of 19.7 µM, a TGI [37] of 79.6 µM and a GI50 [38] of 28.7 µM. For the same compound, the TGI [38] was over 100 µM, the GI50 [39] was 10.2 µM and the TGI [39] was 30.7 µM. It also gave a GI50 [40] of 18.1 µM, a TGI [40] of 41.7 µM and a GI50 [41] of over 100 µM. For the same compound, the TGI [41] was over 100 µM, the GI50 [42] was 55.1 µM and the TGI [42] was over 100 µM. It also gave a GI50 [43] of 30.8 µM, a TGI [43] of 84.4 µM and a GI50 [44] of 38.9 µM. For the same compound, the TGI [44] was over 100 µM, the GI50 [45] was 21.3 µM and the TGI [45] was over 100 µM. It also gave a GI50 [46] of 18.5 µM, a TGI [46] of 37.8 µM and a GI50 [47] of 15.6 µM. It also gave a TGI [47] of 46.4 µM, a GI50 [48] of 20.9 µM and a TGI [48] of 60.2 µM. It also gave a GI50 [49] of 21.5 µM, a TGI [49] of 46.7 µM and a GI50 [50] of 27.8 µM. The TGI [50] was over 100 µM, the GI50 [51] was 16.7 µM and the TGI [51] was 38.9 µM. For the same compound, the GI50 [52] was 25.9 µM, the TGI [52] was 83.6 µM and the GI50 [53] was 21.7 µM. It also gave a TGI [53] of over 100 µM, a GI50 [54] of 27.7 µM and a TGI [54] of over 100 µM. The GI50 [55] was 18.3 µM, the TGI [55] was over 100 µM and the GI50 [56] was 10.5 µM. It also gave a TGI [56] of 26.7 µM.
